Paper PMC2860993 (PLoS ONE, 2010)
Read-outs that look alike come from different tables or passages of the source.

Assays:
[1] = test system: recombinant luciferase-expressing CMV (Towne); test: microbe, parasite or virus in culture; assay type: cell-based, human CMV; conditions: for Selectivity index (SI): ratio between CC50 and EC50
Experimental: (§1) Human Foreskin Fibroblasts (HFF) passage 12–16 and human lung fibroblasts (HEL) passage 8–12 (from ATCC) were maintained in DMEM containing 10% fetal bovine serum and used for infections with the viruses.
The CMV strains used for infections were the highly-passaged Towne virus, and a clinical isolate obtained from the urine of a neonate with congenital CMV infection (SB) and passaged once in tissue culture. […] Initial experiments were performed using a recombinant human CMV-green fluorescent protein (GFP) virus, derived from Towne strain. This virus has a 9-kb deletion from the dispensable unique short (US) region from US1 to US12, and instead contains the bacterial artificial chromosome sequences and a GFP expression cassette. […] A recombinant virus expressing luciferase reporter gene under the control of UL99 (pp28) late promoter was generated by insertion of the reporter gene between the US9 and US10 ORFs in the Towne genome.
Towne-GFP, Towne–luciferase, and SB viruses were used in these assays. HFF or HEL were grown to subconfluent monolayers and infected with the CMV viruses at MOI 0.1 to 3. […] The concentration of each compound was calculated and adjusted by volume such that it was constant throughout the experiment. Following 90 minute incubation, media was replaced with fresh media containing the drug used. Infected and treated cells were incubated at 37°C in a 5% CO2 atmosphere for 3–10 days depending on the virus and the anti-viral assay. The recombinant luciferase-expressing virus was incubated for 72 hours, the GFP virus was incubated for 5 days, and the clinical isolate for 10 days. All experiments were subsequently repeated with compounds added to wells just after viral inoculation.

[2] = Cellular cytotoxicity, CellTiter-Glo Luminescent Cell Viability Assay; assay type: cell-based; conditions: human
Experimental: as §1, with “viruses. Cells in concentrations of 5×10^4 and 1×10^4 were seeded 24 hours prior to infection on each well of 24-and 96-well plates respectively.” for “viruses.”

Toxoplasmosis = test: Anti-toxoplasmosis activity of compounds in supernatants of CMV infected cells; assay type: cell-based, Toxoplasma gondii; conditions: Human betaherpesvirus 5; supernatants of CMV infected cells at 3–5 days post infection
Description: To confirm that the difference in anti-CMV activity between monomers and dimers was not a result of instability of the monomers in tissue culture, we determined the anti-toxoplasmosis activity of these compounds in the supernatants of CMV infected cells at 3–5 days post infection.

[3] = test system: CMV IE1 protein expression; test: Western blot for CMV immediate early protein IE1; assay type: cell-based, human CMV; conditions: for expression of IE1 and GFP: 100 µM, Towne-GFP, HFF, day 5 post infection; for IE1 expression: SB clinical isolate
Experimental: Monoclonal antibodies to CMV immediate early proteins IE-1 and IE-2 (MAb810) and to cellular β-actin were purchased from Millipore (Billerica, MA). Confluent cells were infected with CMV in the presence of artemisinin compounds. At the indicated times cells were harvested in sample buffer (RIPA buffer, Tris 50 mM, Nacl 150 mM, SDS 0.1%, Na Deoxycholate 0.5%, NP40 1%, and protease inhibitor cocktail), boiled and loaded onto SDS-PAGE. Proteins were separated by electrophoresis and transferred to nitrocellulose membrane. After blocking, blots were probed with primary antibody (1∶3,000) overnight at 4°C in phosphate-buffered saline, and Tween. After washing 3 times, blots were probed with HRP-conjugated anti-mouse (Sigma), 1∶5,000 for 1 hour at room temperature. Blots were washed three times in phosphate-buffered saline/Tween, and then developed by enhanced chemiluminescence according to manufacturer protocol.
The expression of CMV immediate early (IE) protein was tested by western blot to determine whether artemisinins' inhibition of CMV replication occurs early in the virus life cycle. […] Further evidence for the early effect of artemisinins on IE1 protein expression was obtained with the clinical isolate (SB, Fig. 5b).
Western blot for IE1 and GFP performed at day 5 post infection. […] Western blot for IE1 was performed at 12 hr (MOI = 3), 24 hr and 48 hr (MOI = 1) post infection.

CMV clinical isolates = test system: CMV clinical isolates; design: method as in PMID 11976732; conditions: 11.1 µM ref 19; cited from earlier work
[4] = test system: recombinant luciferase-expressing CMV; test: Plaque reduction assay in human embryonic lung cells; assay type: cell-based, human CMV; conditions: 10 µM; HEL cells; luciferase virus; 10 days
Experimental: For plaque reduction assay, human embryonic lung cells were seeded into six-well plates and incubated at 37°C one day prior to infection with the recombinant luciferase-expressing CMV. Serial dilutions of GCV, artesunate and artefanilide were used. The virus was diluted to a desired concentration which gave 50–60 plaques per well. Medium was aspirated from the wells, and 0.2 ml of virus suspension was added to each well in triplicates. Plates were incubated for 90 minutes with shaking every 10 min, thereafter drugs were added and a methylcellulose overlay applied to each well. After incubation for 10 days, cells were stained with crystal violet. The stain was aspirated, wells were washed with phosphate-buffered saline, and plaques were counted.

[5] = Human betaherpesvirus 5, read-out: EC50 (µM) - CMV
[6] = drug concentration that leads to 50% cellular cytotoxicity, mean and SD, at least five independent experiments, read-out: CC50

Row | Structure (SMILES) | EC50 ([1]; Human betaherpesvirus 5, 72 h) [µM] | Selectivity index (SI) [1] | CC50 [2] [µM] | EC50 [1, 5] [µM] | EC50 (Toxoplasmosis) [µM] | CC50 [2, 6] [µM] | expression of IE1 and GFP ([3]; MOI of 0.1) | expression of IE1 and GFP ([3]; MOI of 0.5) | in-vitro inhibition of clinical isolates (CMV clinical isolates) | IE1 expression ([3]; 1 µM, MOI = 1, 24 and 48 hr) | IE1 expression ([3]; 1 µM, MOI = 3, 12 hours post infection) | selectivity relative to GCV ([1]; comparison of SI, Table 1) | reduction in plaque formation [4] [%] | IE1 expression ([3]; 10 µM, MOI = 1, 24 and 48 hr)
1 | C[C@H]1[C@@H](CCC(=O)Nc2ccc(F)cc2)O[C@@H]2O[C@@]3(C)CC[C@H]4[C@H](C)CC[C@@H]1[C@@]24OO3 [Artefanilide (3), artefanilide] | 8.1 ± 2.2 | 5.5±1.6 | 44.9 ± 3.4 |  |  |  |  |  |  |  |  |  |  | 
2 | CO[C@H]1O[C@@H]2O[C@@]3(C)CC[C@H]4[C@H](C)CC[C@@H]([C@H]1C)[C@@]24OO3 [Artemether (2c), artemether] | 5.3 ± 2.7 | 3.5±2.2 | 18.4 ± 7.5 | 5.1 ± 2.1 | 0.58 ± 0.22 |  |  |  |  |  |  |  |  | 
3 | C[C@@H]1CC[C@H]2[C@@H](C)C(=O)O[C@@H]3O[C@@]4(C)CC[C@@H]1[C@]32OO4 [Artemisinin (1), artemisinin] | 16.8 ± 4 |  |  | 15.7 ± 4.5 | 4.1 ± 1.1 | 72.4 ± 15.7 | undetectable | decreased |  |  |  |  |  | 
4 | C[C@H]1[C@H](OC(=O)CCC(=O)O)O[C@@H]2O[C@@]3(C)CC[C@H]4[C@H](C)CC[C@@H]1[C@@]24OO3 [Artesunate (2d), artesunate] | 18.5 ± 5.2 | 4.2±2.2 |  | 17.2 ± 3.4 | 3.2 ± 0.8 | 77.5 ± 14.4 |  |  | 50–80% |  |  |  |  | 
5 | C[C@H]1[C@@H](CC(CO)C[C@H]2O[C@@H]3O[C@@]4(C)CC[C@H]5[C@H](C)CC[C@@H]([C@H]2C)[C@@]35OO4)O[C@@H]2O[C@@]3(C)CC[C@H]4[C@H](C)CC[C@@H]1[C@@]24OO3 (some centres unmarked) [Dimer primary alcohol (4), dimer primary alcohol] | 0.15 ± 0.02 | 380±53 | 57 ± 2.3 | 0.16 ± 0.04 | 0.4 ± 0.15 |  |  |  |  | significantly reduced | inhibition of IE1 expression |  |  | 
6 | C[C@H]1[C@@H](CC(C[C@H]2O[C@@H]3O[C@@]4(C)CC[C@H]5[C@H](C)CC[C@@H]([C@H]2C)[C@@]35OO4)CS(=O)(=O)c2ccc(COC(=O)N(C)C)cc2)O[C@@H]2O[C@@]3(C)CC[C@H]4[C@H](C)CC[C@@H]1[C@@]24OO3 (some centres unmarked) [Dimer sulfone carbamate (6), dimer sulfone dimethyl carbamate] | 0.06 | 508±173 | 28.1 ± 9.6 |  |  |  |  |  |  |  |  | approximately 10 times |  | 
7 | Nc1nc(O)c2ncn(COC(CO)CO)c2n1 [GCV, Ganciclovir] | 5.6 ± 0.2 |  |  |  |  | 247 ± 33.4 |  |  |  |  |  |  | 80 | not affected
